Structures are written as SMILES. pIC50: −log10 of the molar value.

Experiment [1] deals with T1, Acetylcholinesterase (Homo sapiens, UniProt P22303). The experiment is described as follows: Inhibition of AChE activity.
Experiment [2] deals with T1, Acetylcholinesterase. Nature of the experiment: Inhibition of AChE at 0.03 mM.
For experiment [3], the target named is T1, Acetylcholinesterase. The experiment is described as follows: Inhibition of AChE at 0.3 mM.

T1 sequence (P22303 whole entry): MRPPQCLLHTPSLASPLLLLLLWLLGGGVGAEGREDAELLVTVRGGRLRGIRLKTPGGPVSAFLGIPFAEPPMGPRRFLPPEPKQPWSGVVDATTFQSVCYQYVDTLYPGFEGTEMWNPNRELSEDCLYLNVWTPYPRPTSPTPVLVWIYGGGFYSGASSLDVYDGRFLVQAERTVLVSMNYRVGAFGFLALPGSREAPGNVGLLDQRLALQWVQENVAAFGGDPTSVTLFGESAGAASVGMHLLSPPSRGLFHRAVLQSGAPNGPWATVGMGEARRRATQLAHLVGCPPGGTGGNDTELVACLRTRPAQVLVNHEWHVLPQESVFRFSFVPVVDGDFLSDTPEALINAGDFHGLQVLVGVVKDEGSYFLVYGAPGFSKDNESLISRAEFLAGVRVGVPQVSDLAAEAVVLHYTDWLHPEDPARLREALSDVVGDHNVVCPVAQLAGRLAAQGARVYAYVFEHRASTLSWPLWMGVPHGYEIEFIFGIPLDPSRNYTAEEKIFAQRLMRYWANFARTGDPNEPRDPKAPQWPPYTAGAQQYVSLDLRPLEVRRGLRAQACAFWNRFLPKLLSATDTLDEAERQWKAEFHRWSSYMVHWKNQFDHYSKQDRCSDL

In general, pIC50 refers to the IC50 on a negative log10 scale, so that one unit is a factor of ten. In turn, `COc1ccc(C(O)c2nccc3cc(OC)c(OC)cc23)cc1OC` (stereo unspecified) showed a pIC50 against Acetylcholinesterase [1] of 4.97.

Compound `COc1ccc(Cc2nccc3cc(OC)c(OC)cc23)cc1OC` [PAPAVERINE] showed a pIC50 against Acetylcholinesterase [1] of 4.61. Against the preceding compound, the pIC50 is 0.36 log units lower.

One may read the inhibition as how much of the control response was suppressed. Turning to `COc1cc2ccnc(C(O)c3ccccc3OC)c2cc1OC` (stereo unspecified), the pIC50 against Acetylcholinesterase [1] was 5.16. This compound came in with an inhibition against Acetylcholinesterase [1] (concentration not given here) of 0%. As for `COC(=O)N1CCc2c(OC)c(OC)c(OC)c3c2C1Cc1cc(OC)c(OC)cc1-3` (stereo unspecified), the inhibition amounted to 7.3% against Acetylcholinesterase [2] and 15.9% against Acetylcholinesterase [3].

The values are drawn from ChEMBL document CHEMBL1146949, “Isoquinoline derivatives as potential acetylcholinesterase inhibitors” (Bioorg Med Chem Lett, 2006).
